Assay in all cases: ≥ marks a high value that may be exact or a test limit, other limits are often not marked, values filed in µg/mL are converted to µM
Test [1] relates to Xanthomonas axonopodis pv. citri.
The subject of test [2] is Escherichia coli ATCC 8739.
For test [3], the system named is Escherichia coli ATCC 25922.
The test system of test [4] is Pseudomonas aeruginosa ATCC 27853.
The subject of test [5] is Staphylococcus aureus ATCC 25923.
The test system of test [6] is Staphylococcus aureus ATCC 29313.
Test [7] deals with Neisseria meningitidis.
In test [8] the test system is Escherichia coli.
For test [9], the system named is Mycobacterium tuberculosis.
Test [10] has as its system Salmonella typhimurium.
Test [11] deals with Yersinia pestis.
Test [12] has as its system Pseudomonas aeruginosa.
The subject of test [13] is Staphylococcus aureus.
Test [14] has as its system Staphylococcus aureus MR.
In test [15] the test system is Yersinia ruckeri VI-3629.
For test [16], the system named is Vibrio anguillarum NCIMB 2133.
Test [17] concerns Psychrobacter immobilis NCIMB 308.
In test [18] the test system is Vibrio anguillarum VI-F258-3.
For test [19], the system named is Vibrio anguillarum NCIMB 2129.
Test [20] has as its system Yersinia ruckeri NCIMB 2196.
The subject of test [21] is Micrococcus luteus ATCC 4698.
Test [22] has as its system Planococcus citreus NCIMB 1493.
In test [23] the test system is Aeromonas salmonicida NCIMB 1102.
Test [24] deals with Staphylococcus aureus ATCC 9144.
In test [25] the test system is Corynebacterium glutamicum ATCC 13032.
For test [26], the system named is Escherichia coli CIB 84492.
Test [27] relates to Staphylococcus aureus CIB 85462.
Test [28] relates to Staphylococcus epidermidis RP62A.
Test [29] relates to Stenotrophomonas maltophilia B32/4.
The test system of test [30] is Escherichia coli ATCC 25726.
For test [31], the system named is Acinetobacter baumannii NM8.
Test [32] deals with Klebsiella pneumoniae ATCC 700603.
In test [33] the test system is Staphylococcus epidermidis RP62A/1.
Test [34] relates to Candida albicans ATCC 90028.
Test [35] concerns Candida albicans ATCC 20032.
Test [36] deals with Escherichia coli ML-35p.
Test [37] relates to Staphylococcus aureus ATCC 43300.
Test [38] deals with Bacillus subtilis ATCC 6633.
The subject of test [39] is Pseudomonas aeruginosa PAO1.
The test system of test [40] is Pseudomonas aeruginosa 08031014.

6 molecules from DBAASP can be followed below.

Converted amounts (≈) assume the structure as drawn.

In the case of `CC(C)C[C@H](NC(=O)[C@H](C)NC(=O)[C@@H](NC(=O)[C@H](CCCCN)NC(=O)CNC(=O)[C@@H](NC(=O)[C@@H](NC(=O)[C@H](CCCCN)NC(=O)CNC(=O)[C@H](CC(C)C)NC(=O)[C@H](CO)NC(=O)[C@H](CCCCN)NC(=O)[C@H](CC(C)C)NC(=O)[C@H](CCCCN)NC(=O)[C@H](CC(=O)O)NC(=O)[C@H](CC(C)C)NC(=O)[C@H](Cc1c[nH]c2ccccc12)NC(=O)[C@H](C)N)C(C)C)C(C)C)C(C)C)C(=O)NCC(=O)N[C@H](C(=O)N[C@@H](C)C(=O)N[C@@H](CCC(N)=O)C(=O)N[C@@H](CC(N)=O)C(=O)N[C@@H](Cc1ccc(O)cc1)C(=O)N[C@@H](CC(C)C)C(=O)N[C@@H](CC(N)=O)C(=O)N1CCC[C@H]1C(=O)N[C@@H](CCC(N)=O)C(=O)N[C@@H](CCC(N)=O)C(=O)O)C(C)C` [AWLDKLKSLGKVVGKVALGVAQNYLNPQQ], the MIC in test [1] worked out at 2 µM (≈ 6.28 µg/mL); in [2], 1.27 µM (≈ 4 µg/mL); in test [3], 5 µM (≈ 15.7 µg/mL); in [4] it was 10 µM (≈ 31.4 µg/mL); in test [5], 1.27 µM (≈ 4 µg/mL); in test [6], 20 µM (≈ 62.8 µg/mL).
With `CC[C@H](C)[C@H](NC(=O)CNC(=O)CNC(=O)[C@H](CCSC)NC(=O)[C@H](CC(C)C)NC(=O)[C@H](CCC(=O)O)NC(=O)[C@H](CCCN=C(N)N)NC(=O)CNC(=O)[C@H](CCCN=C(N)N)NC(=O)[C@H](CCSC)NC(=O)CNC(=O)[C@@H](NC(=O)[C@H](CCCN=C(N)N)NC(=O)[C@H](CC(C)C)NC(=O)[C@@H](N)CS)[C@@H](C)CC)C(=O)NCC(=O)N[C@@H](CCCCN)C(=O)N[C@H](C(=O)N[C@@H](CCSC)C(=O)O)[C@@H](C)O` [CLRIGMRGRELMGGIGKTM], the minimum inhibitory concentration (MIC) is no less than 144 µM in [7]; 144 µM (≈ 300 µg/mL) in test [8]; no less than 144 µM in test [9]; no less than 144 µM in test [10]; no less than 144 µM in [11]; 144 µM (≈ 300 µg/mL) in test [12]. Also, the MIC was 144 µM (≈ 300 µg/mL) in test [13] and no less than 144 µM in [14].
For the molecule `CC[C@H](C)[C@H](NC(=O)[C@H](CC(C)C)NC(=O)CNC(=O)[C@@H](NC(=O)[C@@H](NC(=O)[C@H](Cc1cnc[nH]1)NC(=O)[C@H](Cc1cnc[nH]1)NC(=O)[C@H](CC(C)C)NC(=O)[C@@H](N)Cc1ccccc1)[C@@H](C)CC)C(C)C)C(=O)N[C@@H](Cc1cnc[nH]1)C(=O)N[C@@H](Cc1cnc[nH]1)C(=O)NCC(=O)N[C@@H](CCCCN)C(=O)N[C@@H](CC(C)C)C(=O)N[C@@H](CC(=O)O)C(=O)N[C@@H](CCSC)C(=O)N[C@@H](Cc1ccc(O)cc1)C(=O)N[C@@H](CCCN=C(N)N)C(=O)N[C@@H](CO)C(=O)N[C@@H](CC(N)=O)C(=O)N[C@@H](CC(N)=O)C(=O)O` [FLHHIVGLIHHGKLDMYRSNN], the MIC was 10 µM (≈ 25 µg/mL) in [15]; 10 µM (≈ 25 µg/mL) in [16]; 10 µM (≈ 25 µg/mL) in [17]; 10 µM (≈ 25 µg/mL) in test [18]; 10 µM (≈ 25 µg/mL) in [19]; greater than 10 µM in test [3]. Besides, the minimum inhibitory concentration (MIC) in [20], in test [21], in [22], in test [23], in [24] and in test [25] was 10 µM (≈ 25 µg/mL) throughout.
Take `CC[C@H](C)[C@@H]1NC(=O)[C@H](CC(C)C)NC(=O)[C@@H](NC(=O)[C@H](Cc2ccccc2)NC(=O)[C@@H](NC(=O)[C@@H](NC(=O)[C@@H]2CCCN2C(=O)[C@@H](NC(=O)[C@@H](NC(=O)[C@H](CCCCN)NC(=O)[C@H](C)NC(=O)[C@H](C)NC(=O)[C@@H](NC(=O)[C@H](CCCN=C(N)N)NC(=O)[C@H](CC(C)C)NC(=O)[C@@H](NC(=O)[C@H](C)NC(=O)[C@@H]2CCCN2C(=O)[C@H](CC(C)C)NC(=O)[C@@H](N)Cc2ccccc2)C(C)C)C(C)C)C(C)C)C(C)C)[C@@H](C)O)C(C)C)CSSC[C@@H](C(=O)O)NC(=O)[C@H](CCCCN)NC(=O)[C@H](CCCCN)NC(=O)[C@H](CO)NC1=O` [FLPAVLRVAAKVVPTVFCLISKKC]: the MIC in test [26] turned out to be 24.6 µM (≈ 64 µg/mL); in [27], 3.07 µM (≈ 7.99 µg/mL); in test [3] it was 49.2 µM (≈ 128 µg/mL); in [5], 6.15 µM (≈ 16 µg/mL).
As for `CC[C@H](C)[C@H](N)C(=O)N[C@@H](CC(C)C)C(=O)NCC(=O)N[C@@H](CCCCN)C(=O)N[C@@H](CC(C)C)C(=O)N[C@@H](CC(C)C)C(=O)N[C@@H](CO)C(=O)N[C@H](C(=O)N[C@@H](C)C(=O)N[C@@H](C)C(=O)NCC(=O)N[C@@H](CC(C)C)C(=O)N[C@@H](CC(C)C)C(=O)N[C@@H](CO)C(=O)N[C@@H](CCCCN)C(=O)N[C@@H](CC(C)C)C(N)=O)[C@@H](C)O` [ILGKLLSTAAGLLSKL], the MIC is 16 µM (≈ 25.6 µg/mL) in [28]; no less than 128 µM in test [29]; no less than 256 µM in test [30]; no less than 128 µM in [31]; greater than 128 µM in test [32]; greater than 128 µM in test [4]. Moreover, the MIC in test [5] is 32 µM (≈ 51.1 µg/mL); in [33] it was 8 µM (≈ 12.8 µg/mL); in test [34], no less than 128 µM.
As to `CC[C@H](C)[C@H](NC(=O)[C@H](CCCCN)NC(=O)[C@@H](NC(=O)[C@H](Cc1c[nH]c2ccccc12)NC(=O)[C@H](CS)NC(=O)[C@H](CCCNC(=N)N)NC(=O)[C@@H]1CCCN1C(=O)[C@H](CCCNC(=N)N)NC(=O)[C@H](CC(C)C)NC(=O)[C@H](CO)NC(=O)[C@@H](N)CCCCN)[C@@H](C)CC)C(=O)N[C@@H](CCCCN)C(=O)N[C@@H](Cc1ccccc1)C(=O)N[C@@H](CCCNC(=N)N)C(=O)N[C@@H](CS)C(=O)N[C@@H](CCCCN)C(=O)N[C@@H](CO)C(=O)N[C@@H](CC(C)C)C(=O)N[C@@H](CCCCN)C(=O)N[C@@H](Cc1ccccc1)C(=O)O` [KSLRPRCWIKIKFRCKSLKF], the MIC in test [35] was 3.7 µM (≈ 9.38 µg/mL); in test [36], 7.39 µM (≈ 18.8 µg/mL); in test [37], 3.7 µM (≈ 9.38 µg/mL); in test [8], 20.9 µM (≈ 53 µg/mL); in [3] it was 7.39 µM (≈ 18.8 µg/mL); in test [4], 3.7 µM (≈ 9.38 µg/mL). Moreover, the MIC in test [5] is 3.7 µM (≈ 9.38 µg/mL); in test [38], no less than 39.4 µM; in test [39] it was 3.7 µM (≈ 9.38 µg/mL); in test [40], 14.8 µM (≈ 37.5 µg/mL).

In general, MIC refers to the smallest concentration in the dilution series that meets the test's criterion for growth inhibition. The low end stands for greater potency, the high end for weaker potency.
